One test concerns Sphaerotheca fuliginea. Description: Cucumber powdery mildew preventive test. The class given is in vivo. Particulars: in vivo. The procedure:
In a greenhouse, cucumber (variety: Sagamihanshiro) planted in a plastic pot having a diameter of 5 cm was grown to the 3rd to 5th-leaf stage. Spray was carried out in the same manner as in Test example 1, and 3 days after the spray, a conidia suspension prepared from Sphaerotheca fuliginea were inoculated on the leaf surface. After inoculation, the pots were placed in a thermostatic greenhouse (20 to 25° C.), and controlling effects were examined after 7 days from the inoculation. In the examination, a ratio of lesion area occupied per one leaf of cucumber was determined according to the same index as in Test example 1, and the control value and the theoretical value according to Colby's formula were similarly calculated.
Wettable powder prepared in compliance with Comparative Preparation Example 4 containing the compounds indicated in Table 7-9 were sprayed to the cucumber leaves, a conidiospore suspension prepared from Sphaerotheca fuliginea was inoculated onto the plants, and the controlling effects were examined in a manner similar to Test Example 6.

Another test relates to Phytophthora infestans. The class given is in vivo. To be noted: 5 days after inoculation; for Control value: Table 6-1.
Test [1] has as its system Pseudoperonospora cubensis. Description: Cucumber downy mildew preventive test. Format: in vivo. Particulars: Table 8; treatment concentration 10 ppm; 7 days after inoculation. Here is the method:
In a greenhouse, cucumber (variety: Sagamihanshiro) planted in a plastic pot having a diameter of 5 cm was grown to the 3rd to 5th-leaf stage. Spray was carried out in the same manner as in Test example 1, and after drying the chemical liquid, the pots were transferred into a greenhouse. After 3 days from the spray, a zoosporangium suspension of Pseudoperonospora cubensis was inoculated. After inoculation, the pots were placed in a high-humidity chamber (20 to 25° C.), transferred into a greenhouse on the next day, and controlling effects were examined after 7 days from the inoculation. A ratio of lesion area occupied per one leaf of cucumber was determined according to the same index as in Test example 1, and the control value and the theoretical value according to Colby's formula were similarly calculated.

A further test concerns Puccinia recondita. Description: Wheat brown rust preventive test. Format: in vivo. To be noted: Table 5, 8 days after inoculation. Here is the method: Wheat plants (variety: Norin 61 gou) planted in plastic pots having a diameter of 5 cm were grown indoors to the second to fourth leaf stage. Wettable powder containing the compounds indicated in Table 5 were sprayed in the same manner as in Test Example 1, and after the chemical had dried, a conidia suspension of Puccinia recondita was inoculated onto the leaves. Following inoculation, the pots were placed in the humidified chamber of an artificial inoculation room (20° C. to 23° C.), removed on the following day and then transferred to a greenhouse. Control effects were examined 8 days after inoculation. During the examination, the number of lesions on five leaves of the wheat plants was determined in accordance with the following incidence degree indicators, and control values and theoretical values as determined according to Colby's formula were calculated in the same manner as in Test Example 1.

Another test has as its system Blumeria graminis. Description: Barley powdery mildew preventive test. To be noted: Table 4, 8 days after inoculation. The class given is in vivo. Here is the method: Barley plants (variety: Akashinriki) planted in plastic pots having a diameter of 5 cm were grown indoors to the second to fourth leaf stage. Wettable powder containing the compounds indicated in Table 4 were sprayed in the same manner as in Test Example 1, and after the chemical had dried, conidia of Blumeria graminis was inoculated onto the leaves. Following inoculation, the pots were transferred to a constant-temperature chamber (20° C. to 25° C.), and control effects were examined 8 days after inoculation.

The subject of a further test is Botrytis cinerea. Particulars: in vivo.
Another test concerns Pyricularia oryzae. The class given is in vivo. To be noted: for Control value: Table 3-1.
Setting [2] is: Table 6-2, treatment concentration 10 ppm.
Setting [3] is: Table 6-3, treatment concentration 10 ppm.
Where [4] appears, read: Table 3-2, treatment concentration 10 ppm.
Setting [5] is: Table 3-3, treatment concentration 10 ppm.
Setting [6] is: Table 3-4, treatment concentration 10 ppm.
The mark [7] stands for this setting: Table 3-5 (Comparative Example 2), treatment concentration 10 ppm.
The mark [8] stands for this setting: treatment concentration 0.4 ppm.

Values joined by “and” are separate entries in the source; they are usually repeats but may differ in a detail not shown here. Identical values can stand only once. Like-named read-outs stand apart in the source and are kept apart here.

Take `CC1(C)N=C(c2cnc3ccccc3c2)c2cccc(F)c2C1(C)C` [Compound A, 3-(5-fluoro-3,3,4,4-tetramethyl-3,4-dihydroisoquinolin-1-yl)quinoline]: the Control value is 33 and 17 in the test with Sphaerotheca fuliginea; 8 in the test with Phytophthora infestans (treatment concentration 10 ppm); 11 with Puccinia recondita (treatment concentration 10 ppm); 6 in the test on Blumeria graminis (treatment concentration 10 ppm); 64 in the test with Botrytis cinerea; 67 in the test on Pyricularia oryzae (treatment concentration 10 ppm). In addition, the Preventive value was 40 in the test on Sphaerotheca fuliginea; 33 in the test with Phytophthora infestans (setting [2]); 47 with Phytophthora infestans (setting [3]); 27 in test [1]; 77 and 70 and 73 and 67 and 40 in the test with Botrytis cinerea; 73 with Pyricularia oryzae (setting [4]). Moreover, the Preventive value in the test on Pyricularia oryzae (setting [5]) is listed as 73; in the test on Pyricularia oryzae (setting [6]), 67; with Pyricularia oryzae (setting [7]), 67.

Regarding `COc1cc(F)c(-c2c(Cl)nc(C)n2-c2cccc(F)c2)c(F)c1` [Compound of formula (XIV) (b-88)], the results for the Preventive value in the test with Sphaerotheca fuliginea and with Botrytis cinerea were 40 and 50, respectively. Further, the Control value in the test with Puccinia recondita (treatment concentration 2 ppm) was found to be 42; in the test on Blumeria graminis (treatment concentration 2 ppm) it was 56; with Botrytis cinerea, 14; in the test with Pyricularia oryzae (treatment concentration 2 ppm), 50.

Turning to `O=C(Nc1ccccc1-c1ccc(F)c(F)c1)c1nccnc1C(F)(F)F` [Pyraziflumid (b-49), Pyraziflumid], the values for the Control value in the test with Puccinia recondita (treatment concentration 2 ppm) and in the test with Pyricularia oryzae (treatment concentration 2 ppm) were 85 and 17, respectively. The Preventive value with Botrytis cinerea amounted to 40.

Consider `CC1(CCl)CCC(Cc2ccc(Cl)cc2)C1(O)Cn1cncn1` (stereo not drawn) [Compound of formula (VII)-1 (b-38)], for which the Control value is listed as 69 with Puccinia recondita (treatment concentration 2 ppm), 81 in the test on Blumeria graminis (treatment concentration 2 ppm), 7 with Botrytis cinerea and 50 in the test on Pyricularia oryzae (treatment concentration 2 ppm).

As to `Cn1nnnc1/C(=N\OCc1cccc(NC(=O)OC(C)(C)C)n1)c1ccccc1` [Picarbutrazox (b-78), Picarbutrazox], the Control value in the test on Phytophthora infestans (setting [8]) is listed as 75; in the test on Puccinia recondita (setting [8]) it was 3; in the test on Botrytis cinerea it was 0; with Pyricularia oryzae (setting [8]) it was 17.

On to `CC1(C)N=C(c2cnc3ccccc3c2)c2cccc(F)c2C1(F)F` [Compound C, 3-(4,4,5-trifluoro-3,3-dimethyl-3,4-dihydroisoquinolin-1-yl)quinoline], for which the Control value is 33 and 17 in the test with Sphaerotheca fuliginea; 4 in the test on Phytophthora infestans (treatment concentration 10 ppm); 8 in the test with Puccinia recondita (treatment concentration 10 ppm); 6 in the test with Blumeria graminis (treatment concentration 10 ppm); 57 in the test on Botrytis cinerea; 67 in the test on Pyricularia oryzae (treatment concentration 10 ppm). Besides, the Preventive value was 33 and 40 in the test on Sphaerotheca fuliginea; 40 in the test on Phytophthora infestans (setting [2]); 37 with Phytophthora infestans (setting [3]); 17 in test [1]; 73 and 60 and 70 and 77 and 67 and 40 with Botrytis cinerea; 73 with Pyricularia oryzae (setting [4]). The Preventive value with Pyricularia oryzae (setting [5]) came out at 73; with Pyricularia oryzae (setting [6]), 67; with Pyricularia oryzae (setting [7]), 67.

For `Cc1cc(OC(C)C)ccc1C(=O)C(C)(C)NC(=O)c1sccc1C` [Isofetamid (b-47), Isofetamid], the Control value with Puccinia recondita (treatment concentration 10 ppm) stood at 3; with Blumeria graminis (treatment concentration 10 ppm), 67; with Pyricularia oryzae (treatment concentration 10 ppm), 17.

Turning to `Cn1cc(C(=O)Nc2ccccc2-c2cc(F)c(F)c(F)c2)c(C(F)F)n1` [Fluxapyroxad (b-1), Fluxapyroxad], the Control value was determined as 72 with Puccinia recondita (treatment concentration 2 ppm), 61 in the test on Blumeria graminis (treatment concentration 2 ppm) and 17 with Pyricularia oryzae (treatment concentration 2 ppm). This compound yielded a Preventive value in the test on Botrytis cinerea of 33.

Take `CC1(C)N=C(c2cnc3ccccc3c2)c2ccccc2C1(F)F` [Compound B, 3-(4,4-difluoro-3,3-dimethyl-3,4-dihydroisoquinolin-1-yl)quinoline]: the Control value in the test on Sphaerotheca fuliginea was 33 and 17; in the test with Phytophthora infestans (treatment concentration 10 ppm), 13; with Puccinia recondita (treatment concentration 10 ppm), 6; in the test on Blumeria graminis (treatment concentration 10 ppm), 6; with Botrytis cinerea, 57; with Pyricularia oryzae (treatment concentration 10 ppm) it was 67. The Preventive value in the test on Sphaerotheca fuliginea is 33 and 40; in the test with Phytophthora infestans (setting [2]), 33; with Phytophthora infestans (setting [3]), 40; in test [1], 23; in the test on Botrytis cinerea, 77 and 70 and 73 and 80 and 67 and 40; in the test with Pyricularia oryzae (setting [4]) it was 73. Moreover, the results for the Preventive value in the test with Pyricularia oryzae (setting [5]), with Pyricularia oryzae (setting [6]) and in the test on Pyricularia oryzae (setting [7]) were 73, 67 and 67, respectively.
